{
  "source": "patent US20060234980A1",
  "about": "“Antiinflammatory agent, agent for preventing/ameliorating allergic diseases and functional food” (priority 2002, published 2006)",
  "system": "oral sensitization model of BALB/c mouse",
  "test": "Oral sensitization model with OVA, oligosaccharide-added feeds, serum antigen-specific antibody titer (ELISA)",
  "format": "in vivo",
  "settings": "5% (w/w) in feed",
  "description": "An oral sensitization model of BALB/c mouse using ovalbumin (OVA) as a model antigen was produced, and influences exerted by various oligosaccharides added to feed on serum antibody titer were compared. Until initiation of the experiment, 12-week old male BALM/c mice were allowed to freely take AIN-93G as a base feed (α-corn starch, 529.5 g/kg; casein, 200 g/kg; sucrose, 100 g/kg; soy bean oil, 70 g/kg; cellulose, 50 g/kg; mineral mixing, 35 g/kg; vitamin mixing, 10 g/kg; L-cystine, 3 g/kg; choline bitartarate, 2.5 g/kg) . After pre-breeding for 1 week, an oligosaccahide no-[…] (base seed) group, and feeds obtained by substituting 5% (w/w) of the base feed with raffinose (RAF), α-GOS (hereinafter, referred to simply as GOS), fructooligosaccharide (FOS), xylooligosaccharide (XOS), that is, five groups were prepared, and mice were allowed to freely take these feeds for 8weeks. During this, an aqueous OVA solution (1 mg/0.2 mL) was orally administered forcibly everyday. After initiation of aministration of OVA, blood was collected from orbital venous plexus every one week, and centrifugally separated to obtain sera. Sear of one group (9/group) were pooled, and subjected to quantification of antigen-specific antibody titer by ELISA.",
  "data": [
    {"compound": "OC[C@H]1O[C@H](OC[C@H]2O[C@H](O[C@]3(CO)O[C@H](CO)[C@@H](O)[C@@H]3O)[C@H](O)[C@@H](O)[C@@H]2O)[C@H](O)[C@@H](O)[C@H]1O", "note": "[RAF, raffinose]", "values": [
      {"measurement": "effect on increase of IgE (overall conclusion)", "setting": "8 weeks daily oral OVA", "result": "effect of delaying increase"},
      {"measurement": "effect on increase of IgG (overall conclusion)", "setting": "8 weeks daily oral OVA", "result": "effect of delaying increase"},
      {"measurement": "antigen-specific IgG in blood", "setting": "at 2 to 5 weeks", "result": "changed lower than the oligosaccharide no-addition feed group"},
      {"measurement": "antigen-specific IgE in blood", "setting": "at 8 weeks", "result": "showed the same high value as that of the FOS group"},
      {"measurement": "antigen-specific IgE in blood", "setting": "until 7 weeks", "result": "changed lower than the oligosaccharide no-addition feed group and the FOS feed group"}
    ]}
  ]
}
